These are literature values, as cited in EP1688139A1 (Board of Regents of the University of Nebraska, priority 2000, dated 2002).

The test system of this series is 3-nitropropionic acid. The note with it: rats, diet supplemented with creatine for 2 weeks, exposed to 3-nitropropionic acid.

As to “N-aminoiminomethyl-N-methylglycine [Creatine]”, the “less lesion volume than nonsupplemented animals” value is 83%.
